pIC50: −log10 of the molar value.
Assay: Inhibition of Saccharomyces cerevisiae ribonucleotide reductase

Substance: H-FTFNEDF-OH
- pIC50: 4.36

Substance: H-NFDDDF-OH
- pIC50: 4.52

From ChEMBL document CHEMBL1155831, “The structural basis for peptidomimetic inhibition of eukaryotic ribonucleotide reductase: a conformationally flexible pharmacophore” (J Med Chem, 2008)
